Reference: patent US8415312B2, “Compound which is a nystatin derivative” (Biosergen AS, priority 2007, dated 2013)
In brackets after ≈: the same amount, converted by molar mass.

Assays:
Test in all cases: Antifungal susceptibility study (1), broth microdilution MIC
Type in all cases: cell-based
[1] = tested on: Cryptococcus humicolus ATCC 9949; conditions: lowest concentration preventing any visible growth, read at 48 hours, 25° C., RPMI 1640 pH 7.0
Protocol: (§1) ACROS ORGANICS, New Jersey, USA), pH 7.0, was used in study. […] Then these DMSO solutions were diluted 50-fold (first 10-fold and then 5-fold) in the test medium. […] The solutions were prepared just before using. The organisms used for susceptibility testing were: Candida albicans ATCC 14053, Cryptococcus humicolus ATCC 9949, Aspergillus niger ATCC 16404 and Fusarium oxysporum VKM F-140 (=CMI, IMI 90473). Organisms were stored on potato dextrose agar […] 50% glycerol solution at -70° C. For short-term storage, stock cultures were stored on agar […] 4° C. The cultures of yeasts were sub-cultured onto Sabouraud dextrose (SAB) agar and incubated for 24 hours at 35° C. (Candida albicans) or for 48 hours at 25° C. (Cryptococcus humicolus) to obtain a freshly grown pure culture. The cultures of moulds were sub-cultured onto potato dextrose agar and incubated for 7 days at 35° C. […] (Fusarium oxysporum) to ensure maximum sporulation. […] Inoculum quantitation was performed by plating dilution of the inoculum on Sabouraud dextrose agar to determine the viable number of CFU per milliliter. Sterile 96-well flat-bottomed microtitration plates were used for testing. 100 μl of diluted inocula were dispensed into each microdilution well containing 100 μl of the double dilutions of compounds. Drug-free and yeast/mould-free controls were included. Microdilution trays were incubated at 35° C. (Candida albicans and moulds) or 25° C. (Cryptococcus humicolus) without agitation and observed for the presence or absence of visible growth. […] Minimal inhibitory concentrations (MICs) were read at 48 hours.

[2] = tested on: Candida albicans ATCC 14053; conditions: lowest concentration preventing any visible growth, read at 48 hours, 35° C., RPMI 1640 pH 7.0
Protocol: as §1

[3] = tested on: Aspergillus niger ATCC 16404; conditions: lowest concentration preventing any visible growth, read at 48 hours, 35° C., RPMI 1640 pH 7.0
Protocol: (§2) ACROS ORGANICS, New Jersey, USA), pH 7.0, was used in study. […] Then these DMSO solutions were diluted 50-fold (first 10-fold and then 5-fold) in the test medium. […] The solutions were prepared just before using. The organisms used for susceptibility testing were: Candida albicans ATCC 14053, Cryptococcus humicolus ATCC 9949, Aspergillus niger ATCC 16404 and Fusarium oxysporum VKM F-140 (=CMI, IMI 90473). Organisms were stored on potato dextrose agar […] 50% glycerol solution at -70° C. For short-term storage, stock cultures were stored on agar […] 4° C. The cultures of yeasts were sub-cultured onto Sabouraud dextrose (SAB) agar and incubated for 24 hours at 35° C. (Candida albicans) or for 48 hours at 25° C. (Cryptococcus humicolus) to obtain a freshly grown pure culture. The cultures of moulds were sub-cultured onto potato dextrose agar and incubated for 7 days at 35° C. […] (Fusarium oxysporum) to ensure maximum sporulation. […] Finally, the suspensions were vortexed for 15 s to break up clumps of cells and then filtered through four layers of sterile gauze. The densities of conidial spore suspensions was measured at 530 nm and adjusted to 0.09-0.11 for Aspergillus niger and 0.15-0.17 for Fusarium oxysporum. These suspensions were diluted 1:50 with the standard medium. […] Inoculum quantitation was performed by plating dilution of the inoculum on Sabouraud dextrose agar to determine the viable number of CFU per milliliter. Sterile 96-well flat-bottomed microtitration plates were used for testing. 100 μl of diluted inocula were dispensed into each microdilution well containing 100 μl of the double dilutions of compounds. Drug-free and yeast/mould-free controls were included. Microdilution trays were incubated at 35° C. (Candida albicans and moulds) or 25° C. (Cryptococcus humicolus) without agitation and observed for the presence or absence of visible growth. […] Minimal inhibitory concentrations (MICs) were read at 48 hours.

[4] = tested on: Fusarium oxysporum VKM F-140; conditions: lowest concentration preventing any visible growth, read at 48 hours, 35° C., RPMI 1640 pH 7.0
Protocol: as §2

Structure (SMILES)	MIC Cryptococcus humicolus ATCC 9949 [1] [µg/mL]	MIC Candida albicans ATCC 14053 [2] [µg/mL]	MIC Aspergillus niger ATCC 16404 [3] [µg/mL]	MIC Fusarium oxysporum VKM F-140 [4] [µg/mL]
COC(=O)C(NC(=O)C1C(O)CC2(O)CC(O)C(O)CCC(O)CC(O)CC(O)CC(=O)OC(C)C(C)C(O)C(C)C=CC=CC=CC=CC=CC=CC=CC(OC3OC(C)C(O)C(N)C3O)CC1O2)C(C)C (stereo not drawn) [Compound 8]	2 (≈ 1.93 µM)	2 (≈ 1.93 µM)	4 (≈ 3.86 µM)	8 (≈ 7.71 µM)
COC(=O)C(C)NC(=O)C1C(O)CC2(O)CC(O)C(O)CCC(O)CC(O)CC(O)CC(=O)OC(C)C(C)C(O)C(C)C=CC=CC=CC=CC=CC=CC=CC(OC3OC(C)C(O)C(N)C3O)CC1O2 (stereo not drawn) [Compound 10]	2 (≈ 1.98 µM)	2 (≈ 1.98 µM)	4 (≈ 3.96 µM)	8 (≈ 7.93 µM)
CC1C=CC=CC=CC=CC=CC=CC=CC(OC2OC(C)C(O)C(NCC3(O)OCC(O)C(OC4OC(CO)C(O)C(O)C4O)C3O)C2O)CC2OC(O)(CC(O)C(O)CCC(O)CC(O)CC(O)CC(=O)OC(C)C(C)C1O)CC(O)C2C(=O)O (stereo not drawn) [Compound 19]	2 (≈ 1.6 µM)	2 (≈ 1.6 µM)	2 (≈ 1.6 µM)	8 (≈ 6.41 µM)
CC1C=CC=CC=CC=CC=CC=CC=CC(OC2OC(C)C(O)C(N(Cc3ccc(N(C)C)cc3)Cc3ccc(N(C)C)cc3)C2O)CC2OC(O)(CC(O)C(O)CCC(O)CC(O)CC(O)CC(=O)OC(C)C(C)C1O)CC(O)C2C(=O)O (stereo not drawn) [Compound 20]	2 (≈ 1.68 µM)	2 (≈ 1.68 µM)	4 (≈ 3.36 µM)	>16
CC1C=CC=CC=CC=CC=CC=CC=CC(OC2OC(C)C(O)C(NCCCN)C2O)CC2OC(O)(CC(O)C(O)CCC(O)CC(O)CC(O)CC(=O)OC(C)C(C)C1O)CC(O)C2C(=O)O (stereo not drawn) [Compound 21]	4 (≈ 4.08 µM)	2 (≈ 2.04 µM)	4 (≈ 4.08 µM)	4 (≈ 4.08 µM)
CC1C=CC=CC=CC=CC=CC=CC=CC(OC2OC(C)C(O)C(NC(=O)C(N)CCCCN)C2O)CC2OC(O)(CC(O)C(O)CCC(O)CC(O)CC(O)CC(=O)OC(C)C(C)C1O)CC(O)C2C(=O)O (stereo not drawn) [Compound 23]	4 (≈ 3.8 µM)	4 (≈ 3.8 µM)	8 (≈ 7.6 µM)	8 (≈ 7.6 µM)
CC1C=CC=CC=CC=CC=CC=CC=CC(OC2OC(C)C(O)C(NCC3(O)OCC(O)C(O)C3O)C2O)CC2OC(O)(CC(O)C(O)CCC(O)CC(O)CC(O)CC(=O)OC(C)C(C)C1O)CC(O)C2C(=O)NCCCN(C)C (stereo not drawn) [Compound 30]	1 (≈ 0.854 µM)	1 (≈ 0.854 µM)	1 (≈ 0.854 µM)	4 (≈ 3.42 µM)
CC1C=CC=CC=CC=CC=CC=CC=CC(OC2OC(C)C(O)C(NCC3(O)OCC(O)C(O)C3O)C2O)CC2OC(O)(CC(O)C(O)CCC(O)CC(O)CC(O)CC(=O)OC(C)C(C)C1O)CC(O)C2C(=O)NCCCN(C)C (stereo not drawn) [Compound 31, N-tagatopyronosyl S44HP DMAP amide]	2 (≈ 1.71 µM)	1 (≈ 0.854 µM)	2 (≈ 1.71 µM)	4 (≈ 3.42 µM)
CC1C=CC=CC=CC=CC=CC=CC=CC(OC2OC(C)C(O)C(NCC3(O)OCC(O)C(O)C3O)C2O)CC2OC(O)(CC(O)C(O)CCC(O)CC(O)CC(O)CC(=O)OC(C)C(C)C1O)CC(O)C2C(=O)NCCCO (stereo not drawn) [Compound 36]	4 (≈ 3.5 µM)	4 (≈ 3.5 µM)	4 (≈ 3.5 µM)	16 (≈ 14 µM)
CC1O[C@@H](O[C@H]2/C=C/C=C/C=C/C=C/C=C/C=C/C=C/[C@H](C)[C@@H](O)[C@@H](C)[C@H](C)OC(=O)C[C@H](O)C[C@H](O)C[C@H](O)CC[C@@H](O)[C@H](O)C[C@]3(O)C[C@H](O)[C@@H](C(=O)NCCN(C)C)[C@H](C2)O3)[C@H](O)C(NCC2(O)OC[C@@H](O)[C@H](O)[C@@H]2O)[C@@H]1O (stereo partly drawn) [Compound 42, N-tagatopyronosyl S44HP DMAE amide]	1 (≈ 0.865 µM)	0.5 (≈ 0.432 µM)	1 (≈ 0.865 µM)	2 (≈ 1.73 µM)

Continued, values first:

MIC Cryptococcus humicolus ATCC 9949 [1] [µg/mL]	MIC Candida albicans ATCC 14053 [2] [µg/mL]	MIC Aspergillus niger ATCC 16404 [3] [µg/mL]	MIC Fusarium oxysporum VKM F-140 [4] [µg/mL]	Structure (SMILES)
2 (≈ 1.75 µM)	2 (≈ 1.75 µM)	2 (≈ 1.75 µM)	8 (≈ 7.01 µM)	CC1C=CC=CC=CC=CC=CC=CC=CC(OC2OC(C)C(O)C(NCc3ccc(N(C)C)cc3)C2O)CC2OC(O)(CC(O)C(O)CCC(O)CC(O)CC(O)CC(=O)OC(C)C(C)C1O)CC(O)C2C(=O)NCCCN(C)C (stereo not drawn) [Compound 32]
1 (≈ 0.88 µM)	1 (≈ 0.88 µM)	1 (≈ 0.88 µM)	2 (≈ 1.76 µM)	CC1C=CC=CC=CC=CC=CC=CC=CC(OC2OC(C)C(O)C(NC(=O)C(N)CCCCN)C2O)CC2OC(O)(CC(O)C(O)CCC(O)CC(O)CC(O)CC(=O)OC(C)C(C)C1O)CC(O)C2C(=O)NCCCN(C)C [Compound 33, N-L-lysyl S44HP DMAP-Amide]
2 (≈ 1.83 µM)	1 (≈ 0.915 µM)	1 (≈ 0.915 µM)	4 (≈ 3.66 µM)	CC1C=CC=CC=CC=CC=CC=CC=CC(OC2OC(C)C(O)C(NC(=O)CN(C)C)C2O)CC2OC(O)(CC(O)C(O)CCC(O)CC(O)CC(O)CC(=O)OC(C)C(C)C1O)CC(O)C2C(=O)NCCCN(C)C (stereo not drawn) [Compound 34]
2 (≈ 1.75 µM)	2 (≈ 1.75 µM)	4 (≈ 3.5 µM)	4 (≈ 3.5 µM)	CC1C=CC=CC=CC=CC=CC=CC=CC(OC2OC(C)C(O)C(NC(=O)c3ccc(CN)cc3)C2O)CC2OC(O)(CC(O)C(O)CCC(O)CC(O)CC(O)CC(=O)OC(C)C(C)C1O)CC(O)C2C(=O)NCCCN(C)C (stereo not drawn) [Compound 35]
1 (≈ 0.897 µM)	2 (≈ 1.79 µM)	2 (≈ 1.79 µM)	4 (≈ 3.59 µM)	CC1C=CC=CC=CC=CC=CC=CC=CC(OC2OC(C)C(O)C(NCc3ccc(N(C)C)cc3)C2O)CC2OC(O)(CC(O)C(O)CCC(O)CC(O)CC(O)CC(=O)OC(C)C(C)C1O)CC(O)C2C(=O)NCCCO (stereo not drawn) [Compound 37]
1 (≈ 0.901 µM)	1 (≈ 0.901 µM)	2 (≈ 1.8 µM)	4 (≈ 3.61 µM)	CC1C=CC=CC=CC=CC=CC=CC=CC(OC2OC(C)C(O)C(NC(=O)C(N)CCCCN)C2O)CC2OC(O)(CC(O)C(O)CCC(O)CC(O)CC(O)CC(=O)OC(C)C(C)C1O)CC(O)C2C(=O)NCCCO (stereo not drawn) [Compound 38]
1 (≈ 0.938 µM)	1 (≈ 0.938 µM)	2 (≈ 1.88 µM)	16 (≈ 15 µM)	CC1C=CC=CC=CC=CC=CC=CC=CC(OC2OC(C)C(O)C(NC(=O)CN(C)C)C2O)CC2OC(O)(CC(O)C(O)CCC(O)CC(O)CC(O)CC(=O)OC(C)C(C)C1O)CC(O)C2C(=O)NCCCO (stereo not drawn) [Compound 39]
2 (≈ 1.79 µM)	2 (≈ 1.79 µM)	4 (≈ 3.59 µM)	16 (≈ 14.4 µM)	CC1C=CC=CC=CC=CC=CC=CC=CC(OC2OC(C)C(O)C(NC(=O)c3ccc(CN)cc3)C2O)CC2OC(O)(CC(O)C(O)CCC(O)CC(O)CC(O)CC(=O)OC(C)C(C)C1O)CC(O)C2C(=O)NCCCO (stereo not drawn) [Compound 40]
